Legend:
[1] = tested on: Monocotyledonous and dicotyledonous test plants; test: Example B1: pre-emergence herbicidal action, 2 kg of AS/ha; assay type: in vivo; conditions: 3 weeks, scale 1-9
Method in brief: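 Pre-emergence test: test substances sprayed right after sowing in standard soil as aqueous suspension (25% wettable powder) or emulsion (25% emulsion concentrate) at 2 kg AS/ha in 500 l water/ha. Plants grown in greenhouse; rated after 3 weeks on a nine-level scale (1=complete damage, 9=no effect).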

[2] = tested on: Monocotyledonous and dicotyledonous test plants; test: Example B2: post-emergence herbicidal action, 2 kg of AS/ha; assay type: in vivo; set-up: key: 1 = complete damage, 9 = no effect; conditions: 4- to 6-leaf stage, about 18 days, scale 1-9
Method in brief: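 Greenhouse-grown mono- and dicot plants sprayed post-emergence at 4- to 6-leaf stage with aqueous suspension (from 25% wettable powder) or emulsion (from 25% emulsion concentrate), 2 kg AS/ha in 500 l water/ha. Rated after about 18 days on nine-level scale (1 = complete damage, 9 = no effect).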

Amaranthus [3] = test: Example B3: pre-emergence action, 250 g/ha; assay type: in vivo; conditions: 250 g of AS/ha, sprayed immediately after sowing, 3 weeks, nine-level scale 1=complete damage, 9=no effect
Protocol: (§1) Monocotyledonous and dicotyledonous test plants are sown in pots in standard soil. Immediately after sowing, the test substances are sprayed on (500 l of spray liquorlha) as an aqueous suspension, prepared from a wettable powder WP10 corresponding to the desired dosage (250 g of a.i./ha).
(§2) The test plants are then grown under optimum conditions in a greenhouse. After a test period of 3 weeks, the test is evaluated with a nine -evel scale of ratings (1=complete damage, 9=no effect). Ratings of 1 to 4 (in particular 1 to 3) mean good to very good herbicidal action, 7-9 mean good tolerance.

Kochia [4] = test: Example B3: pre-emergence action, 250 g/ha; assay type: in vivo; conditions: 250 g of AS/ha, sprayed immediately after sowing, 3 weeks, nine-level scale 1=complete damage, 9=no effect
Protocol: as §1, §2

Chenopodium [5] = test: Example B3: pre-emergence action, 250 g/ha; assay type: in vivo; conditions: 250 g of AS/ha, sprayed immediately after sowing, 3 weeks, nine-level scale 1=complete damage, 9=no effect
Protocol: as §1, §2

Abutilon [6] = test: Example B3: pre-emergence action, 250 g/ha; assay type: in vivo; conditions: 250 g of AS/ha, sprayed immediately after sowing, 3 weeks, nine-level scale 1=complete damage, 9=no effect
Protocol: as §1, §2

Stellaria [7] = test: Example B3: pre-emergence action, 250 g/ha; assay type: in vivo; conditions: 250 g of AS/ha, sprayed immediately after sowing, 3 weeks, nine-level scale 1=complete damage, 9=no effect
Protocol: as §1, §2

Sida [8] = test: Example B3: pre-emergence action, 250 g/ha; assay type: in vivo; conditions: 250 g of AS/ha, sprayed immediately after sowing, 3 weeks, nine-level scale 1=complete damage, 9=no effect
Protocol: as §1, §2

Amaranthus [9] = test: Example B4: post-emergence action, 250 g/ha; assay type: in vivo; conditions: 250 g of AS/ha, sprayed in the 2-3-leaf stage, 0.2% X77, 3 weeks, nine-level scale 1=complete damage, 9=no effect
Protocol: (§3) Monocotyledonous and dicotyledonous test plants are sown in pots in standard soil. In the 2-3- leaf stage of the test plants, the test substances are sprayed on (500 l of spray liquor/ha) as an aqueous suspension, prepared from a wettable powder WP10 according to the desired dosage (250 g of a.i./ha). 0.2% of X77 is added as wetting agent to the spray liquor. The test plants are then grown under optimum conditions in a greenhouse.
(§4) After a test period of 3 weeks, the test is evaluated with a nine4evel scale of ratings (1=complete damage, 9=no effect). Ratings of 1 to 4 (in particular 1 to 3) mean good to very good herbicidal action, 7-9 mean good tolerance.

Kochia [10] = test: Example B4: post-emergence action, 250 g/ha; assay type: in vivo; conditions: 250 g of AS/ha, sprayed in the 2-3-leaf stage, 0.2% X77, 3 weeks, nine-level scale 1=complete damage, 9=no effect
Protocol: as §3, §4

Chenopodium [11] = test: Example B4: post-emergence action, 250 g/ha; assay type: in vivo; conditions: 250 g of AS/ha, sprayed in the 2-3-leaf stage, 0.2% X77, 3 weeks, nine-level scale 1=complete damage, 9=no effect
Protocol: as §3, §4

Abutilon [12] = test: Example B4: post-emergence action, 250 g/ha; assay type: in vivo; conditions: 250 g of AS/ha, sprayed in the 2-3-leaf stage, 0.2% X77, 3 weeks, nine-level scale 1=complete damage, 9=no effect
Protocol: as §3, §4

Stellaria [13] = test: Example B4: post-emergence action, 250 g/ha; assay type: in vivo; conditions: 250 g of AS/ha, sprayed in the 2-3-leaf stage, 0.2% X77, 3 weeks, nine-level scale 1=complete damage, 9=no effect
Protocol: as §3, §4

Sida [14] = test: Example B4: post-emergence action, 250 g/ha; assay type: in vivo; conditions: 250 g of AS/ha, sprayed in the 2-3-leaf stage, 0.2% X77, 3 weeks, nine-level scale 1=complete damage, 9=no effect
Protocol: as §3, §4

Structure (SMILES)	Pre-emergence action: Amaranthus (rating) (Amaranthus [3])	Pre-emergence action: Kochia (rating) (Kochia [4])	Pre-emergence action: Chenopodium (rating) (Chenopodium [5])	Pre-emergence action: Abutilon (rating) (Abutilon [6])	Pre-emergence action: Stellaria (rating) (Stellaria [7])	Pre-emergence action: Sida (rating) (Sida [8])	Post-emergence action: Amaranthus (rating) (Amaranthus [9])	Post-emergence action: Kochia (rating) (Kochia [10])	Post-emergence action: Chenopodium (rating) (Chenopodium [11])	Post-emergence action: Abutilon (rating) (Abutilon [12])	Post-emergence action: Stellaria (rating) (Stellaria [13])	Post-emergence action: Sida (rating) (Sida [14])	further results
Cc1nc(C(F)(F)F)ccc1C(=O)C1=C(Cl)C2CCC(C2)C1=O (stereo not drawn) [Compound 1.398, 4-chloro-3-(2-methyl-6-trifluoromethyl-pyridine-3-carbonyl)bicyclo[3.2.1]oct-3-en-2-one]													melting point: 137 to 138 °C; pre-emergence action rating, Avena ([1]; test plant Avena): 2; pre-emergence action rating, Cyperus ([1]; test plant Cyperus): 1; pre-emergence action rating, Setaria ([1]; test plant Setaria): 1; pre-emergence action rating, Sinapis ([1]; test plant Sinapis): 1; pre-emergence action rating, Solanum ([1]; test plant Solanum): 1; pre-emergence action rating, Stellaria ([1]; test plant Stellaria): 1; post-emergence action rating, Avena ([2]; test plant Avena): 2; post-emergence action rating, Setaria ([2]; test plant Setaria): 2; post-emergence action rating, Sinapis ([2]; test plant Sinapis): 1; post-emergence action rating, Solanum ([2]; test plant Solanum): 2; post-emergence action rating, Stellaria ([2]; test plant Stellaria): 2
CCSc1ccc(C(=O)C2=C(O)C3CCC(C3)C2=O)c(C(F)(F)F)n1 (stereo not drawn) [Compound 1.341]	9	9	1	3	1	4	2	4	3	5	4	5	
COc1ccc(C(=O)C2=C(O)C3CCC(C3)C2=O)c(C(F)(F)F)n1 (stereo not drawn) [Compound 1.347]	2	1	1	2	1	4	2	2	2	3	3	3	
C#CCOc1ccc(C(=O)C2=C(O)C3CCC(C3)C2=O)c(C(F)(F)F)n1 (stereo not drawn) [Compound 1.351]							2	3	3	5	3	3	
Cc1ccc(C(=O)C2=C(O)C3CCC(C3)C2=O)c(C(F)(F)F)n1 (stereo not drawn) [Compound 1.361]							2	2	2	2	3	2	

— patent publication US6498125B2, “Pyridine ketones useful as herbicides” (Syngenta Participations AG, priority 1998, dated 2002)
